# From publication PMC11808136, “Screening and identification of host signaling pathways for alleviating influenza-induced production of pro-inflammatory cytokines, IP-10, IL-8, and MCP-1, using a U937 cell-based influenza model” (Frontiers in Microbiology, 2025)
# Read-outs that look alike come from different tables or passages of the source.
# Experiments:
# in vitro = settings: human
# [1] = test system: IL-8 production in influenza virus-infected U937 cells (H1N1); test: cells; assay type: cell-based, Human; settings: for IC50: U-937
# [2] = test system: influenza virus infection; set-up: method as in Florence et al., 2018; Chen et al., 2019; settings: without compromising viral titers; ref Florence et al., 2018; Chen et al., 2019; cited from earlier work
# p38 = p38 (Homo sapiens, UniProt Q16539); test: Cell-free kinase activity assay, p38; assay type: biochemical; settings: p38 kinases in vitro
# Chain of p38 (Q16539 whole entry): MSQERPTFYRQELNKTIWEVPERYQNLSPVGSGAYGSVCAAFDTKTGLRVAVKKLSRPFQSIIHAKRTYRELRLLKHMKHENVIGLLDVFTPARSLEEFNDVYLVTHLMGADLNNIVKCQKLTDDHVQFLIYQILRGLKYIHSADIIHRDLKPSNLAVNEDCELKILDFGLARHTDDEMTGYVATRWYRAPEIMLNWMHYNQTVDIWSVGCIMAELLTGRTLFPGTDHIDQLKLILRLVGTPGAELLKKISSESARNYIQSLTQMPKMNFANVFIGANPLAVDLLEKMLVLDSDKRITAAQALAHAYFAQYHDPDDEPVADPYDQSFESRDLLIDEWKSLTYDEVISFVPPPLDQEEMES
# [3] = test system: IP-10 production in influenza virus-infected U937 cells (H1N1); test: cells; assay type: cell-based
# [4] = test system: MCP-1 production in influenza virus-infected U937 cells (H1N1); test: cells; assay type: cell-based
# [5] = test system: STAT1 phosphorylation (p-STAT1); assay type: cell-based, Human
# [6] = test system: ERK phosphorylation (p-ERK); test: Western blot of phosphorylated ERK in influenza-infected U937 cells; assay type: cell-based, Human; settings: 24 h post-infection, western blot
# Method: Figure 5 Raf/MEK/ERK and p38 signal pathways are involved in the regulation of cytokines in U937 cells. (A–C) Determination of inhibition rates on IL-8, IP-10, and MCP-1 by each compound in the MAPK group and the distribution of targets between subgroups. U937 cells were infected with influenza A/PuertoRico/8/1934 virus (MOI = 0.1) in the presence of 10 μM of each inhibitor and then incubated at 37°C for 48 h. The distribution of the targets of all the inhibitors in the MAPK group was then analyzed and categorized into subgroups. […] The supernatants were harvested 48 h post-infection, and the levels of IL-8, MCP-1, and IP-10 were measured by AlphaLISA. (E) The cells were treated as in (C) except being lysed 24 h post-infection, and the levels of phosphorylated STAT1, p38, ERK (p-STAT1, p-p38, p-ERK), total STAT1, p38, ERK, and viral protein HA were assessed by western blot. (F) A quantitative analysis of the relative levels of the phosphorylated STAT1, p38, ERK (p-STAT1, p-p38, p-ERK) in (E). The data are representative of at least three independent experiments. n.s. no significance; *p < 0.05; **p < 0.01; ***p < 0.001.
# (§1) Figure 6 TKIs repress cytokine production by suppressing the p38 pathway. […] Cells were lysed 24 h post-infection, and the levels of phosphorylated p38 and ERK (p-p38 and p-ERK) and total p38 and ERK were assessed by western blot. A quantification of phosphorylated p38 levels for each drug treatment was included in the right panel of each figure.
# Cells were homogenized in RIPA lysis buffer containing a 1% protease inhibitor cocktail (Roche) to extract total protein. Equal amounts of protein homogenates were separated by SDS-PAGE (Bio-Rad) and transferred onto polyvinylidene difluoride membranes (pore size […]; Bio-Rad). […] Protein levels were detected with horseradish peroxidase-tagged secondary antibodies and enhanced chemiluminescence western blot reagents (Advansta), followed by visualization using an enhanced chemiluminescence system (AlphaEase FluorChem System, Alpha Innotech Corp.). Bands were quantified using ImageJ (Ver. 1.46; NIH, Bethesda, MD).
# [7] = test system: phosphorylation of p38 (p-p38); test: Western blot of phosphorylated p38 in influenza-infected U937 cells; assay type: cell-based, Human
# Method: as §1
# Cells were homogenized in RIPA lysis buffer containing a 1% protease inhibitor cocktail (Roche) to extract total protein. Equal amounts of protein homogenates were separated by SDS-PAGE (Bio-Rad) and transferred onto polyvinylidene difluoride membranes (pore size […]; Bio-Rad). The membranes were then blotted with monoclonal antibodies against GAPDH (1:1000, ZSGB-BIO), p38, phosphor-p38, ERK, phospho-ERK, STAT1, phosphor-STAT1 (1:1000; Cell Signaling Technology), STAT3, and phosphor-STAT3 (1:1000; Cell Signaling Technology), respectively. Protein levels were detected with horseradish peroxidase-tagged secondary antibodies and enhanced chemiluminescence western blot reagents (Advansta), followed by visualization using an enhanced chemiluminescence system (AlphaEase FluorChem System, Alpha Innotech Corp.). Bands were quantified using ImageJ (Ver. 1.46; NIH, Bethesda, MD).
# [8] = test system: MCP-1 production in influenza virus-infected U937 cells (H3N2); test: cells; assay type: cell-based, Human
# [9] = test system: IL-8 production in influenza virus-infected U937 cells (H7N8); test: cells; assay type: cell-based, Human; settings: read-out: EC50 IL-8
# [10] = test system: IL-8 production in influenza virus-infected U937 cells (H3N2); test: cells; assay type: cell-based, Human
# [11] = test system: IP-10 production in influenza virus-infected U937 cells (H7N8); test: cells; assay type: cell-based, Human; settings: read-out: EC50 IP-10
# [12] = test system: IP-10 production in influenza virus-infected U937 cells (H3N2); test: cells; assay type: cell-based, Human
# [13] = test system: MCP-1 production in influenza virus-infected U937 cells (H7N8); test: cells; assay type: cell-based, Human; settings: read-out: EC50 MCP-1
# [14] = CC50, secondary screen, Supplemental Table 1
# [15] = Homo sapiens, U-937, secondary screen, Supplemental Table 1, read-out: EC50 IL-8
# [16] = Homo sapiens, U-937, read-out: EC50 IP-10
# [17] = Homo sapiens, U-937, read-out: EC50 MCP-1
# [18] = Homo sapiens, U-937, secondary screen, Supplemental Table 1, read-out: EC50 IP-10
# [19] = Homo sapiens, U-937, secondary screen, Supplemental Table 1; read-out: EC50 MCP-1
smiles,measurement,setting,value
"C=CC(=O)N1CCC[C@@H](n2nc(-c3ccc(Oc4ccccc4)cc3)c3c(N)ncnc32)C1 [Ibrutinib (PCI-32765), Ibrutinib]",CC50,in vitro; [14],> 100 µM
same,EC50,[1]; [15],1.22 µM
same,protection of mice from lethal influenza infection,[2],protecting mice from lethal influenza infection
CC(C)(C)Cn1c(N)nc2ccc(-c3[nH]c(C(C)(C)C)nc3-c3ccc(F)cc3)nc21 [LY2228820],IC50,p38,0.06 µM
same,CC50,in vitro; [14],50 µM
same,IC50,[1]; Homo sapiens,0.005 µM
same,EC50,[1]; [15],< 0.005 µM
same,EC50,[3]; [16],3.7 µM
same,EC50,[4]; [17],2.23 µM
same,IC50,"[4]; Homo sapiens, U-937, read-out: IC50 MCP-1",2.2 µM
O=C(NOC[C@H](O)CO)c1ccc(F)c(F)c1Nc1ccc(I)cc1F [PD0325901],phosphorylation of STAT1 proteins,[5],inhibit
same,CC50,in vitro,> 100 µM
same,phosphorylation level of ERK,[6],decreased
same,secretion of IL-8,[1],inhibited
same,IC50,[1]; Homo sapiens,< 0.02 µM
same,EC50,[1]; [15],< 0.005 µM
same,phosphorylation of p38,"[7]; 24 h post-infection, western blot, cellular model",suppress
same,IC50,"[7]; Homo sapiens, U-937, read-out: IC50 p-p38",0.01 µM
same,EC50,[3]; [18],0.69 µM
same,secretion of IP-10,"[3]; at high concentrations, 48 h post-infection",inhibit
same,EC50,[4]; [19],0.1 µM
same,IC50,"[4]; Homo sapiens, U-937; read-out: IC50 MCP-1",< 0.02 µM
same,secretion of MCP-1,"[4]; different concentrations of PD0325901, 48 h post-infection",inhibited
COc1cc(Nc2ncc(F)c(Nc3ccc4c(n3)NC(=O)C(C)(C)O4)n2)cc(OC)c1OC [R406],EC50,[1]; read-out: EC50 IL-8,0.13 µM
same,EC50,"[1]; secondary screen, Supplemental Table 1, read-out: EC50 IL-8",0.82 µM
same,EC50,[8],0.062 µM
same,EC50,[9],0.088 µM
same,EC50,[10],0.69 µM
same,EC50,[11],0.09 µM
same,EC50,"[3]; U937 cells infected with H1N1, read-out: EC50 IP-10",0.431 µM
same,EC50,"[3]; secondary screen, Supplemental Table 1, read-out: EC50 IP-10",3.5 µM
same,EC50,[4]; U937 cells infected with H1N1; read-out: EC50 MCP-1,0.24 µM
same,EC50,"[4]; secondary screen, Supplemental Table 1; read-out: EC50 MCP-1",0.27 µM
same,EC50,[12],0.005 µM
same,EC50,[13],0.035 µM
same,CC50,U937 cells,> 100 µM
same,CC50,"U937 cells; U937 cells, Table 1 section H1N1",> 100 µM
same,CC50,"U937 cells; U937 cells, Table 1 section H3N2",> 100 µM
same,CC50,"U937 cells; secondary screen, Supplemental Table 1",> 100 µM
Cn1c(=O)c(F)c(Nc2ccc(I)cc2F)c2c(=O)n(C[C@@H](O)CO)cnc21 [TAK-733],CC50,in vitro; CC50,45 µM
same,EC50,"[1]; Homo sapiens, U-937, read-out: EC50 IL-8",< 0.005 µM
same,EC50,[3]; [18],1.4 µM
same,EC50,[4]; [19],0.04 µM
O=C(Nc1ccc(-c2ccnc(Nc3ccc(N4CCOCC4)cc3)n2)cc1)C1CCCN1 (centres unmarked) [XL019],CC50,in vitro; [14],26.7 µM
same,EC50,[1]; [15],0.51 µM
same,EC50,[3]; [16],0.99 µM
same,EC50,[4]; [17],0.94 µM
